Target: T1, Axl (Homo sapiens, UniProt P30530)
T1 sequence (P30530 26-894): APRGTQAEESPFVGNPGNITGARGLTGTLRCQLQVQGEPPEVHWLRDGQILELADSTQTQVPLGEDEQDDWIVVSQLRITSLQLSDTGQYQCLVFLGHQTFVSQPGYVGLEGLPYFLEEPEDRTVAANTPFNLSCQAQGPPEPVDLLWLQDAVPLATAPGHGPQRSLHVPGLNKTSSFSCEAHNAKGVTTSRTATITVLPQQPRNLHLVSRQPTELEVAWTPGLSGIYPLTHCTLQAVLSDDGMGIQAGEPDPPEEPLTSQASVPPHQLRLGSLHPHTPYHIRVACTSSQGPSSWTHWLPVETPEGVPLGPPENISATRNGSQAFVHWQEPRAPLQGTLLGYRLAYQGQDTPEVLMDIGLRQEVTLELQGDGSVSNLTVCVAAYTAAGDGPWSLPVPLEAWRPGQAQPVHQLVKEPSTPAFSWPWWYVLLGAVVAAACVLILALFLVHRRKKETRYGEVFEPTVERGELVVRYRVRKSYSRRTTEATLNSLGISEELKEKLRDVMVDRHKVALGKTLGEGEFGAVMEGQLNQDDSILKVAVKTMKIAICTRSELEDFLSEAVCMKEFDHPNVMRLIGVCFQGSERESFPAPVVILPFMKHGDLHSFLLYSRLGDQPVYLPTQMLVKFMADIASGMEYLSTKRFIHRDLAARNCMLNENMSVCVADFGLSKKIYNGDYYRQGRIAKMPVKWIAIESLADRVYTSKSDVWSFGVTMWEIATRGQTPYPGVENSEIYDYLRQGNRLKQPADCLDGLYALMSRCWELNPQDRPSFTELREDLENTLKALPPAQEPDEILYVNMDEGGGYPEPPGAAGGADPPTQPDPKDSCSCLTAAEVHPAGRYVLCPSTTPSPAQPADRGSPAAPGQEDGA
Assay: HTRF KinEASE-TK biochemical potency assay, AXL
Parameters: purchased Invitrogen
Details: 5 nM AXL, 700 μM ATP, 800 nM TK Substrate-biotin
In short: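 Final conditions: 5 nM AXL, 1 nM TYRO3 or MER, 50 mM HEPES pH 7.4, 10 mM MgCl2, 0.01% BSA, 1 mM DTT, 700 μM ATP. Reaction ran 2 h at RT after 1 h preincubation with compound; HTRF signal read at 665/620 nm.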

IC50, < 0.1 µM:
CC(C)(C)S(=O)(=O)c1ccc(-c2n[nH]c3ncc(-c4ccc5c(c4)CC[C@@H](N4C6COCC4C6)CC5)cc23)cc1 [Example 124, 6-[(7S)-2-{3-[4-(2-methylpropane-2-sulfonyl)phenyl]-2H-pyrazolo[3,4-b]pyridin-5-yl}-6,7,8,9-tetrahydro-5H-benzo[7]annulen-7-yl]-3-oxa-6-azabicyclo[3.1.1]heptane]
CN(C)C(=O)c1ccc(-c2n[nH]c3ncc(-c4ccc5c(c4)CC[C@@H](N4C6COCC4C6)CC5)cc23)cc1 [Example 125, N,N-Dimethyl-4-{5-[(7S)-7-{3-oxa-6-azabicyclo[3.1.1]heptan-6-yl}-6,7,8,9-tetrahydro-5H-benzo[7]annulen-2-yl]-2H-pyrazolo[3,4-b]pyridin-3-yl}benzamide]
c1cc2c(cc1-c1cnc3[nH]nc(-c4ccc(N5C[C@H]6C[C@@H]5CO6)cc4)c3c1)CC[C@@H](N1C3COCC1C3)CC2 [Example 126, (1R,4R)-5-(4-{5-[(7S)-7-{3-oxa-6-azabicyclo[3.1.1]heptan-6-yl}-6,7,8,9-tetrahydro-5H-benzo[7]annulen-2-yl]-2H-pyrazolo[3,4-b]pyridin-3-yl}phenyl)-2-oxa-5-azabicyclo[2.2.1]heptane]
FC1CN(c2ccc(-c3c[nH]c4ncc(-c5ccc6c(c5)CC[C@@H](N5C7COCC5C7)CC6)cc34)cc2)C1 [Example 127, 6-[(7S)-2-{3-[4-(3-fluoroazetidin-1-yl)phenyl]-1H-pyrrolo[2,3-b]pyridin-5-yl}-6,7,8,9-tetrahydro-5H-benzo[7]annulen-7-yl]-3-oxa-6-azabicyclo[3.1.1]heptane]
